Patent US11760762B2, “Thienopyranones and furanopyranones as kinase, bromodomain, and checkpoint inhibitors” (SignalRx Pharmaceuticals, Inc., priority 2017, dated 2023)
Read-outs that look alike come from different tables or passages of the source.

Key:
[1] = biological target: T1, CDK4 (Homo sapiens, UniProt P11802); assay: Cyclin dependent kinase inhibition (Reaction Biology Corp.); type: biochemical
T1 construct: Reaction Biology Corp., Malvern, PA (contract assay service)
Experimental: (§1) PI3K-alpha, PI3K-beta, PI3K-gamma, and PI3K-delta inhibition activity was determined by Thermo Fisher Scientific-Biosciences Life Sciences Solutions, Madison, WI The bromodomain protein inhibition (binding domain 1 and 2 of BRD4) was determined by Reaction Biology Corp., Malvern, PA The cyclin dependent kinase inhibition on proteins such as CDK2, CDK4, CDK6, and CDK9 was determined by Reaction Biology Corp., Malvern, PA.
(§2) The compounds of the invention were characterized by their ability to inhibit the target proteins using third party vendors offering such services. PI3K-alpha, PI3K-gamma, and PI3K-delta inhibition activity was determined by Thermo Fisher Scientific-Biosciences Life Sciences Solutions, Madison, WI. […] NI=no inhibition detected up to 50 μM or IC50 not reached at 50 μM. ND=not done.

[2] = biological target: T2, CDK6 (Homo sapiens, UniProt Q00534); assay: as above; type: biochemical
T2 construct: Reaction Biology Corp., Malvern, PA (contract assay service)
Experimental: as §1, §2

[3] = biological target: T3, CDK2 (Homo sapiens, UniProt P24941); assay: as above; type: biochemical
T3 construct: Reaction Biology Corp., Malvern, PA (contract assay service)
Experimental: as §1

[4] = biological target: T4, CDK9 (Homo sapiens, UniProt P50750); assay: as above; type: biochemical
T4 construct: Reaction Biology Corp., Malvern, PA (contract assay service)
Experimental: as §1

[5] = biological target: DNA-PK (Homo sapiens, UniProt P78527); assay: DNA-PK inhibition; type: biochemical
[6] = biological target: PIM1 (Homo sapiens, UniProt P11309); assay: PIM1 inhibition; type: biochemical
[7] = Oral pharmacokinetic (PK) study (Quintara Discovery); type: in vivo; conditions: plasma, oral gavage 30 mg/kg
Source text: The in vivo anticancer activity displaying drug like properties also bears this out as shown in FIG. 9 and the corresponding example.

[8] = test system: Huh7 cells; assay: Western blot signaling in IGF-1 stimulated Huh7 cells (p-AKT, pRB); type: cell-based; conditions: Huh7, serum starved, IGF-1 stimulation 30 min
Experimental: The hepatocellular carcinoma cell line, Huh7 was serum starved overnight in serum free medium. Cells were seeded into a 96 well tissue culture plate at 1×10^4 cells/well and pulsed with IGF-1 stimulation for 30 min at 37° C. at which time lysates were generated for SDS PAGE analysis. Western blot analysis was performed for p-AKT, AKT, pRB, RB and beta actin as loading control.

[9] = test system: CHLA-136; assay: Neuroblastoma cell viability, Alamar Blue; type: cell-based; conditions: Homo sapiens, 24 hours incubation
Experimental: (§3) IC50 for each cell line was determined using Graphpad Prism software module.

[10] = test system: CHLA-255; assay: Neuroblastoma cell viability, Alamar Blue; type: cell-based; conditions: Homo sapiens, 24 hours incubation
Experimental: as §3

[11] = test system: SMS-KNCR; assay: Neuroblastoma cell viability, Alamar Blue; type: cell-based; conditions: Homo sapiens, 24 hours incubation
Experimental: as §3

[12] = test system: Granta; assay: Mantle cell lymphoma cell viability, AlamarBlue; type: cell-based
Experimental: (§4) Mantle cell lymphoma cell lines Granta, Mino and Jeko-1 were seeded at a density of 2500 cells/0.1 mL per well in a 96-well plate. Compounds 1 or Palbociclib were added post-plating at 50 μM-50 nM concentrations for 48 hours followed by addition of AlamarBlue® and incubation of plates at 37° C. in 5% CO2 for 6 hours. Fluorescence signals were read as emission at 590 nm after excitation at 560 nm. IC50 for each cell line was determined using Graphpad Prism software module.

[13] = test system: Jeko-1; assay: Mantle cell lymphoma cell viability, AlamarBlue; type: cell-based
Experimental: as §4

[14] = test system: Mino; assay: Mantle cell lymphoma cell viability, AlamarBlue; type: cell-based
Experimental: as §4

[15] = test system: Hep3B; assay: Hepatocellular carcinoma cell viability, AlamarBlue; type: cell-based; conditions: Homo sapiens, 24 hours, read-out: Hepatocarcinoma Cell Line IC50 Values Hep3B
Experimental: (§5) Cells were seeded into 96-well plate at 1×10^4 cell per well in complete medium+10% FCS and incubated for 24 hours prior to the addition of compounds at concentrations ranging from 50 μM to 50 nM. Cell viability was quantitated 24 hours after the addition of compounds using AlamarBlue® viable cell detection reagent. IC50 curves were determined using Graphpad Prism software.

[16] = test system: HepG2; assay: as above; type: cell-based; conditions: Homo sapiens, 24 hours, read-out: Hepatocarcinoma Cell Line IC50 Values HepG2
Experimental: as §5

[17] = test system: Huh7; assay: as above; type: cell-based; conditions: Homo sapiens, Huh-7; 24 hours; read-out: Hepatocarcinoma Cell Line IC50 Values Huh7
Experimental: as §5

[18] = test system: Mino and Granta cells; assay: Western blot PI3K and CDK4/cyclin D/Rb signaling in mantle cell lymphoma cells; type: cell-based; conditions: 24 hours
Source text: Cells were lysed in RIPA buffer and equal protein was loaded on SDS-PAGE gel followed by western blotting using p-AKT-Ser473, AKT, pRB-S780/811, RB, pP70S6K. β-actin served as loading control.

[19] = test system: Huh7 2H cell line; assay: Huh7 2H cell viability; type: cell-based; conditions: Homo sapiens, Huh-7, 2 h
Experimental: as §5
The procedures of example 6 were followed except using the Huh7 2H cell line.

[20] = biological target: T5, PI3K-delta (Homo sapiens, UniProt O00329); assay: PI3K inhibition (Thermo Fisher Scientific); type: biochemical; conditions: 10-point curve, grouped by potency; read-out: IC50 P13K δ
T5 construct: Thermo Fisher Scientific-Biosciences Life Sciences Solutions, Madison, WI (contract assay service)
Experimental: as §1, §2

[21] = biological target: T6, PI3K-gamma (Homo sapiens, UniProt P48736); assay: PI3K inhibition (Thermo Fisher Scientific); type: biochemical; conditions: 10-point curve, grouped by potency; read-out: IC50 P13K γ
T6 construct: Thermo Fisher Scientific-Biosciences Life Sciences Solutions, Madison, WI (contract assay service)
Experimental: as §1, §2

[22] = test system: Hepatocellular carcinoma, Neuroblastoma, and Mantle Cell lymphoma cell lines; assay: Percent viability versus concentration, comparison with Palbociclib and combination; type: cell-based
Experimental: The percent viability versus concentration experimental procedures for hepatocellular carcinoma cell lines, neuroblastoma cell lines, and Mantle cell lymphoma cell lines was performed as described in example 6, example 4, and example 5, respectively.

[23] = test system: Huh7 cells; assay: Huh7 tumor implantation in NGS mice, safety and efficacy; conditions: 30 mg/kg oral gavage, 5 times per week for 2 weeks
Source text: 1×10^7 Huh7 cells were implanted into NGS mice. When tumors reached ˜100 mm^3 after 14 days of tumor implantation, animals were divided into four groups (n=8 per group).

[24] = 10-point curve, grouped by potency

T1 sequence (P11802 whole entry): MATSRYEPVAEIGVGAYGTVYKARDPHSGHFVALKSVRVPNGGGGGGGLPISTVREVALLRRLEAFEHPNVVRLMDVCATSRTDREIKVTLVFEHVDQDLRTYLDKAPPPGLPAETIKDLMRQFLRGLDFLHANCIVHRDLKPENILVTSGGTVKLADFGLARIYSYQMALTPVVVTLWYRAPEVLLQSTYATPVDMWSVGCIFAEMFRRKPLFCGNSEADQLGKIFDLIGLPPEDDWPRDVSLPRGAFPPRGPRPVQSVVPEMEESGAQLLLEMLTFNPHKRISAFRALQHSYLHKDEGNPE
T1 sequence (P24385 whole entry partner): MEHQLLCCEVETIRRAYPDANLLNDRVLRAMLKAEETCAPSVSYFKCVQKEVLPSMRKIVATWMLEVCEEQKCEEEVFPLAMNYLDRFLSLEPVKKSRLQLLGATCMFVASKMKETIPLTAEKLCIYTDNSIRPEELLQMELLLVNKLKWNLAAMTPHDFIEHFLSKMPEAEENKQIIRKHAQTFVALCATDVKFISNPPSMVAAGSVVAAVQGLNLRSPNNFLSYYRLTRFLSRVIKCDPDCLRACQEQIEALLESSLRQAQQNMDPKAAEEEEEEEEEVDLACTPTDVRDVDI
T2 sequence (Q00534 whole entry): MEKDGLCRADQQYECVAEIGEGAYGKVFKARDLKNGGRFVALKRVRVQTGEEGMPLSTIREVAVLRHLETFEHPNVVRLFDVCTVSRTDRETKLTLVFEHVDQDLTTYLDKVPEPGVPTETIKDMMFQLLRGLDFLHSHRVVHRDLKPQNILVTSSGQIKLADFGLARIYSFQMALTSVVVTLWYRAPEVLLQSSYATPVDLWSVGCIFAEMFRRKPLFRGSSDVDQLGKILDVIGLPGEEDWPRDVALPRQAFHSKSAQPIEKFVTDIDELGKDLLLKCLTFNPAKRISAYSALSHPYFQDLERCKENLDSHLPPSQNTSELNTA
T2 sequence (P24385 whole entry partner): as the sequence (P24385 whole entry partner) above
T4 sequence (P50750 whole entry): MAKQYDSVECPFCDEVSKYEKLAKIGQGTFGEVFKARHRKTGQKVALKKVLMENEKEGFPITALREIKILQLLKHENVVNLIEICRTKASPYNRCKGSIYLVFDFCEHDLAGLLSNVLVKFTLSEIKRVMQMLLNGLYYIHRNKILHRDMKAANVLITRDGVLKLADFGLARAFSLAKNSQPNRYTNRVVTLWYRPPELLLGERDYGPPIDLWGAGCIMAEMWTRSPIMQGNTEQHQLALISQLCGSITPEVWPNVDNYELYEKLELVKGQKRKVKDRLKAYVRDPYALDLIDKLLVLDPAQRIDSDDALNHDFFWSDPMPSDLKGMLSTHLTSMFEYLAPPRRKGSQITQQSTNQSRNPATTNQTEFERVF
T4 sequence (O60563 whole entry partner): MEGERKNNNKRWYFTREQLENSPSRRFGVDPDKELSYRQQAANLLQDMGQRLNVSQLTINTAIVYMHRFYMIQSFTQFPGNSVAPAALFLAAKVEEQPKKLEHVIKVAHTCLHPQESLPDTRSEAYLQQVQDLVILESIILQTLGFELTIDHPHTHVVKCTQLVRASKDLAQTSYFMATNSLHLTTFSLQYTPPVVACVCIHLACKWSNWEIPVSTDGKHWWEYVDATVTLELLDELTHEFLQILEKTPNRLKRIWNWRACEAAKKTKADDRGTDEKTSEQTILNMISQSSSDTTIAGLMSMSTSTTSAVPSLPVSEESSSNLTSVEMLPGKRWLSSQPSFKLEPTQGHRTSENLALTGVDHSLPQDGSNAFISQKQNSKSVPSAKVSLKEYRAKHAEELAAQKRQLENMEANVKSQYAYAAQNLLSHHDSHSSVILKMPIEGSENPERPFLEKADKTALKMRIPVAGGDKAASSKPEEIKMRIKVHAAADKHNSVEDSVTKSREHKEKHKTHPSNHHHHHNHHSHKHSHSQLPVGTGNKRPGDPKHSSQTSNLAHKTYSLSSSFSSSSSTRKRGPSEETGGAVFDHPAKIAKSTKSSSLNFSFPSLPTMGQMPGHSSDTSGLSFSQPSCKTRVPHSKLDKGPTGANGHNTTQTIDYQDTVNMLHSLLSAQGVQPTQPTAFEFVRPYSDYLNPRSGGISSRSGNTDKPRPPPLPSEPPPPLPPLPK
T5 sequence (O00329 whole entry): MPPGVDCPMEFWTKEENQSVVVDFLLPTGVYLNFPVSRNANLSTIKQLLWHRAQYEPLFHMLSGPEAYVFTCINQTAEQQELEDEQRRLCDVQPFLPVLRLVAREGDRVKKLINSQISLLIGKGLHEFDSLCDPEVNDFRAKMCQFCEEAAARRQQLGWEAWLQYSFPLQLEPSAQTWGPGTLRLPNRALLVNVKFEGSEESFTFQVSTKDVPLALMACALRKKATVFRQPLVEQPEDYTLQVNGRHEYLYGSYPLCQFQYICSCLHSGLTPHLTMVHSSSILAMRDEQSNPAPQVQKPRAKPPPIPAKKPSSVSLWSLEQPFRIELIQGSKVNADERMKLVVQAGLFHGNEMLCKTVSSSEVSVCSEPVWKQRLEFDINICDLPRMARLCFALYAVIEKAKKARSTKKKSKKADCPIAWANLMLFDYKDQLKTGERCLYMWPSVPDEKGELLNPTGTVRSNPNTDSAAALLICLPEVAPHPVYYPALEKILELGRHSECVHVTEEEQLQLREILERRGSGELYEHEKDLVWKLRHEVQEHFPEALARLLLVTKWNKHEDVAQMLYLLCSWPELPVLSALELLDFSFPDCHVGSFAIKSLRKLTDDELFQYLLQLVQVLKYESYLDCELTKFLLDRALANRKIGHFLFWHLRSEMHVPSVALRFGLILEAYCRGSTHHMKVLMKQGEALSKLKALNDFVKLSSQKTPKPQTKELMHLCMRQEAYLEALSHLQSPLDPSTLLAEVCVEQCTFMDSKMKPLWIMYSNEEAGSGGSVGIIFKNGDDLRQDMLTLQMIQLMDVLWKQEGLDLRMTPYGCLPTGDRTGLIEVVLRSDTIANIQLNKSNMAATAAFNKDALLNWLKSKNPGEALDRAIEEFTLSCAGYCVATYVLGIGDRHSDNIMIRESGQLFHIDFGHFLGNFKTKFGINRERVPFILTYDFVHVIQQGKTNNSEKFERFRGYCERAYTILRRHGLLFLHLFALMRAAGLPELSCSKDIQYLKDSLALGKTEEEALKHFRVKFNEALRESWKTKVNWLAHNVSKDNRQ
T5 sequence (P27986 whole entry partner): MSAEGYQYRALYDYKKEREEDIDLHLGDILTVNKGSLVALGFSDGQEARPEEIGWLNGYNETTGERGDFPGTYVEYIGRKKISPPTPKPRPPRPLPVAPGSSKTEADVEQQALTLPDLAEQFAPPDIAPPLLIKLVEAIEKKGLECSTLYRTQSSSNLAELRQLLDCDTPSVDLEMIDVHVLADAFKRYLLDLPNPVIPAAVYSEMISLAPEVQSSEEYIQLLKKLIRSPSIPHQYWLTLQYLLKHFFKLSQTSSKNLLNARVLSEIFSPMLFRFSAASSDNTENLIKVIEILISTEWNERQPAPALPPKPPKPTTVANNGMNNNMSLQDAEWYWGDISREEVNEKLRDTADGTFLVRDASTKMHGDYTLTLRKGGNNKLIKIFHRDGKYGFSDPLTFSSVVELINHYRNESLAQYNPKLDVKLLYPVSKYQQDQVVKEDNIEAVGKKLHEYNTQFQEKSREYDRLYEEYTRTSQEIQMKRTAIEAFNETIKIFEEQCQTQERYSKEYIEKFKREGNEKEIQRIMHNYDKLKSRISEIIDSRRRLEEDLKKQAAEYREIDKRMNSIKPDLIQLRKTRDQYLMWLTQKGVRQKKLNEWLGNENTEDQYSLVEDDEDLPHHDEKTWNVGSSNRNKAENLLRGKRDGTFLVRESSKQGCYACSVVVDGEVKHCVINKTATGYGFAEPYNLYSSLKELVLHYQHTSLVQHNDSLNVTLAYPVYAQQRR
T6 sequence (P48736 whole entry): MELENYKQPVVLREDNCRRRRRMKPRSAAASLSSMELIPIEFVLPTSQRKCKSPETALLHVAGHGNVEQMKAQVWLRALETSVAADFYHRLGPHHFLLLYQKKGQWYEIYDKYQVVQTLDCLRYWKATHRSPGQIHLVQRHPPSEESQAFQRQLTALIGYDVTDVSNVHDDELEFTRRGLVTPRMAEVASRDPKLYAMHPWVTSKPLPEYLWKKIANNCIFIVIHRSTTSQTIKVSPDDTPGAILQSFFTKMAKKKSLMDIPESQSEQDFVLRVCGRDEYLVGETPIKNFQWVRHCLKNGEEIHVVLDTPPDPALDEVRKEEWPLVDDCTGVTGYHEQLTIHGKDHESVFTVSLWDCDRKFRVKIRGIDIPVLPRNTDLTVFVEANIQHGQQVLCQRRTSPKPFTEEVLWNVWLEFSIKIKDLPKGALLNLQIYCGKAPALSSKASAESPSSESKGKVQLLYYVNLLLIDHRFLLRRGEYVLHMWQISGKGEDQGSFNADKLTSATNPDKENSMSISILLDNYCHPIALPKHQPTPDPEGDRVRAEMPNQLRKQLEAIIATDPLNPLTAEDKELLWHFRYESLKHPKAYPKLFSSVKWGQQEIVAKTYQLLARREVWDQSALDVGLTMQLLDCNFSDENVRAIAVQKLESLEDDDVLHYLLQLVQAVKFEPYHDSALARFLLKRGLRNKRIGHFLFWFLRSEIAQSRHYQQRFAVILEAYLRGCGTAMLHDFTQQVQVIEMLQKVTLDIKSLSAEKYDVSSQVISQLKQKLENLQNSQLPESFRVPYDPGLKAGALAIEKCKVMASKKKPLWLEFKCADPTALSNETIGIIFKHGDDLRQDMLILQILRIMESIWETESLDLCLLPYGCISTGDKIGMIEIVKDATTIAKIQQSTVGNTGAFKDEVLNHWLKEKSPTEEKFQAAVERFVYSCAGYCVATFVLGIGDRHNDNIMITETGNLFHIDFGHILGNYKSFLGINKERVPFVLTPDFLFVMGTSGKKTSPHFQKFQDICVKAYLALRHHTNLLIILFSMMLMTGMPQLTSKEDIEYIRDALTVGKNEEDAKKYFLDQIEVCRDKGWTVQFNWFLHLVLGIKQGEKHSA

Molecule `CN(C)C(=O)c1cc2cnc(Nc3ccc(-c4csc5c(=O)cc(N6CCOCC6)oc45)cc3)nc2n1C1CCCC1` [Compound 1, {1-Cyclopentyl-6-[p-(5-morpholino-7-oxo-4-oxa-1-thia-3-indenyl)phenylamino]-1,5,7-triaza-1H-inden-2-yl} (dimethylamino) formaldehyde] has an IC50 [1] of under 2.54 nM, an IC50 [1, 24] of under 100 nM and an IC50 [2] of 3.26 nM. For the same molecule, the IC50 [2, 24] was under 100 nM, the IC50 [3] was 500 nM and the IC50 [4] was 2 nM. For the same molecule, the IC50 [5] was 21 nM, the IC50 [6] was 35 nM and the concentration at 24 h ([7]; 24 hours) was 63 nM. The AUC(0-inf) ([7]; Hot Rod Formulation Kit #8) was 3520 ng·h/mL, the Cmax ([7]; Hot Rod Formulation Kit #8) was 1400 nM and the Tmax ([7]; Hot Rod Formulation Kit #8) was 0.5 h. The half-life ([7]; Hot Rod Formulation Kit #8, read-out: T1/2 (half-life) (converted)) was 10.4 h, the “phosphorylation of CDK target RB (pRB), Western blot” value [8] was “blocks phosphorylation” and the “phosphorylation of PI3K target AKT (p-AKT), Western blot” value [8] was “blocks phosphorylation”. It also gave an IC50 [9] of 4500 nM, an IC50 [10] of 385 nM and an IC50 [11] of 962 nM. The IC50 ([12]; 48 hours, read-out: Mantle Cell Line IC50 Values Granta) was 580 nM, the “times more potent than Palbociclib, Granta” value ([12]; ratio of IC50 values) was 17.7 times and the IC50 ([13]; Homo sapiens, JeKo-1, 48 hours, read-out: Mantle Cell Line IC50 Values Jeko-1) was 851 nM. The “times more potent than Palbociclib, Jeko-1” value ([13]; ratio of IC50 values) was 8.7 times, the IC50 ([14]; Homo sapiens, MINO, 48 hours, read-out: Mantle Cell Line IC50 Values Mino) was 583 nM and the “times more potent than Palbociclib, Mino” value ([14]; ratio of IC50 values) was 82.1 times. It also gave an IC50 [15] of 1100 nM, an IC50 [16] of 4200 nM and an IC50 [17] of 550 nM. The “PI3K-AKT signaling (p-AKT), Western blot” value [18] was “inhibits”, the “cyclin D/RB signaling (phosphorylation of RB), Western blot” value [18] was “inhibits” and the IC50 [19] was 495 nM. For the same molecule, the IC50 [20] was under 100 nM, the IC50 [21] was 1000 to 5000 nM and the “cell viability compared with Palbociclib” value ([22]; Hepatocellular carcinoma, Neuroblastoma, Mantle Cell lymphoma cell lines (FIG. 8A-8C)) was “performed substantially better than Palbociclib”. For the same molecule, the “cell viability compared with combination BKM120, JQ1, Palbociclib” value ([22]; hepatocellular carcinoma cells (FIG. 8D)) was “performed substantially better” and the “in vivo anticancer efficacy (Huh7 tumors)” value [23] was “comparable to the efficacy of 3 separate cognate inhibitors”.
